Measured values from patent publication US8518894B2, “Human milk peptides” (priority 2009, dated 2013).
“Also recorded” adds a separate entry of the source.

Tests used:
[1] = test system: TNF-α expression in RAW 264.7 cells; assay: Cytokine expression in LPS-activated mouse macrophage cell line, TNF-α ELISA; type: cell-based; details: 1 μg/ml LPS, 24 hours
[2] = test system: MCP-1 secretion from human PBMCs; assay: MCP-1 secretion from peripheral blood mononuclear cells after peptide exposure (sandwich ELISA); type: cell-based; details: 24 h exposure, 20 and 100 μg/ml
Procedure: FIG. 13 illustrates stimulation of MCP-1 and Gro-a sectretion from human peripheral blood mononuclear cells (PBMCs) after 24 h exposure to peptides 1-8 (SEQ ID NOs. 1, 29, 2, 8, 9, 19, and 22, respectively) from fraction #23. The experiment was carried out in 4 biological replicates (4 different donors), with 2 technical repeats in each biological experiment. The peptide fragments were tested at 2 concentrations, 20 and 100 μg/ml and MCP-1 and Gro-a were detected by sandwich ELISA kits (BioSource International and eBiosciences, respectively). A positive control peptide (1002) was used in the experiment.
Venous blood from healthy volunteers is collected in Vacutainer® collection tubes containing sodium heparin as an anticoagulant (BD Biosciences). […] The buffy coat is collected and washed twice in RPMI 1640 complete medium, and the number of PBMCs can be determined by trypan blue exclusion. […]
Following 24 hrs of peptide exposure, the tissue culture supernatants are centrifuged at 16,000G (13,000 rpm) at 4° C. for 5 minutes in an IEC MicroMax centrifuge to obtain cell-free samples. […] Cytokines/chemokines are detected by sandwich ELISA kits (BioSource International or eBiosciences) and multiplex kit (Luminex). […] The concentration of the cytokines/chemokines in the culture medium can be quantified by establishing a standard curve with serial dilutions of the recombinant human cytokines/chemokines. […]

[3] = Oxygen Radical Absorbance Capacity (ORAC) assay; details: synthetic peptides; for ORAC value (scavenging activity): per g of peptide
Procedure: This assay measures the scavenging capacity of antioxidant nutrients against the peroxyl radical [Diehl-Jones W L and Askin D F. American Association of Critical Care Nurses (AACN) Clin Issues 15: 83 (2004)], which is one of the most common reactive oxygen species (ROS) in the human body. […] To identify the peptides in fraction #23, the sample was injected into an LC-MS/MS system.

[4] = test system: IL-6 expression in RAW 264.7 cells; assay: Cytokine expression in LPS-activated mouse macrophage cell line, IL-6 ELISA; type: cell-based; details: 100 μg/ml peptide, 1 μg/ml LPS, 24 hours
Procedure: FIG. 11 illustrates the effects of peptides of fraction #23 and tryptophan on TNF-α and IL-6 expression in RAW 246.7 cells. All values expressed in pg/ml +/− SD. Cells grown in 24-well culture tissue-culture grade plates (Corning) and incubated with 100 μg/ml of one of eight milk peptides 1-8 (SEQ ID NOs. 28, 1, 29, 2, 8, 9, 19, and 22, respectively) and 1 μg/ml LPS.
A mouse macrophage cell line (RAW 264.7) was activated with 1 μg/m1 lipopolysaccharide (LPS), a gram negative bacterial cell wall product which induces the expression of inflammatory cytokines (Interleukin-6 [IL-6] and Tumor Necrosis Factor alpha [TNF-α]) via activation of toll-like receptors [Wu, T. T. et al. Toxicol Let. 195-202 (2009). After incubation with LPS for 24 hours in the presence of the peptides from example 7, cell supernatant was collected and mouse IL-6 and TNF-α titres were determined by a standard micro-plate enzyme-linked immunosorbent assay (ELISA) technique (e-Biosciences).

[5] = test system: IL-8 secretion in Caco-2 cells; assay: LPS induced IL-8 secretion in Caco-2 cell culture model; type: cell-based; details: 50, 100, 200 μg/ml, 4, 8, 20, 24 h
Excerpt: Culture medium for non-peptide treated cells was used as control. *P<0.05 indicates a significant difference between the 23-8 treated group and the control group (one-way ANOVA, n=4).

Molecule | ORAC value (scavenging activity) [3] [uM Trolox/g] | TNF-α expression compared to the control (cell culture medium plus LPS) ([1]; 100 μg/ml peptide) | radical scavenging activity in ORAC assay (in words) [3] | other results
N[C@@H](Cc1c[nH]c2ccccc12)C(=O)O [tryptophan, L-tryptophan, reference compound] | – | – | – | TNF-α expression compared to the control (cell culture medium plus LPS) ([1]; 100 μM tryptophan): greatest inhibition
HNPI (listed as Homo sapiens) [SEQ ID NO. 28, fragment from human beta casein in fraction #23] | 114 ±14 | – | – | levels of MCP-1 from PBMCs [2]: robust response; also recorded: significant activity
ISELGW (listed as Homo sapiens) [SEQ ID NO. 22, tryptophan-containing peptide of fraction #23, not matched to a human milk protein] | – | significantly inhibited | most radical scavenging properties | levels of MCP-1 from PBMCs [2]: robust response; also recorded: significantly increased; IL-6 expression [4]: significantly reduced; LPS induced interleukin-8 (IL-8) secretion [5]: decrease
PLAQPA (listed as Homo sapiens) [SEQ ID NO. 29, fragment from human beta casein in fraction #23] | – | significantly inhibited | No scavenging activities | –
SEQ ID NO. 2: human beta-casein f(169-173), identified in fraction #23 (VPYPQ; listed as Homo sapiens) | 3940±623 | significantly inhibited | – | –
SEQ ID NO. 8: human kappa-casein f(31-36), identified in fraction #23 (VPNSYP; listed as Homo sapiens) | 3462±560 | – | – | –
SEQ ID NO. 9: human kappa-casein f(53-58), identified in fraction #23 (NPYVPR; listed as Homo sapiens) | 3380±592 | – | – | –
SEQ ID NO. 19: tyrosine-containing peptide of fraction #23, not matched to a human milk protein (YGYTGA; listed as Homo sapiens) | 8205±552 | significantly inhibited | most radical scavenging properties | –
VPVQA (listed as Homo sapiens) [SEQ ID NO. 1, fragment from human beta casein in fraction #23] | – | significantly inhibited | No scavenging activities | –
